The subject of data set [1] is HBV. Description: Anti-HBV activity in vitro in HepG2.2.15 cells (extracellular HBV DNA by qPCR). It counts as cell-based, Hepatitis B virus. Conditions: Hepatitis B virus. The source says:
HepG2.2.15 and HepDE19 are stably-transfected cell lines containing the HBV genome. Both cell lines are derived from the hepatoblastoma cell line Hep G2 (American Type Culture Collection, ATCC® HB-8065™) by the published procedures described in references: MA Selles et al. Proc. Natl. Acad. Sci. USA 1987, 84, 1005-1009 and H Guo et al. Journal of Virology 2007, 81, 12472-12484, respectively. Both cell lines were maintained in Dulbecco's modified Eagle's medium (DMEM)-F12 medium supplemented with 10% fetal bovine serum, 100 U/mL penicillin, 100 μg/mL streptomycin, and 0.5 mg/mL of G418.
While HepG2.2.15 cells constitutively support HBV replication and production of virus particles, HepDE19 cells are inducible by tetracycline. Addition of 1 μg/mL tetracycline in culture medium suppresses HBV replication in HepDE19 cells, whereas switching to tetracycline-free medium resumes this process.
HepG2.2.15 cells were seeded into 96-well plates (3×10^4 cells in 100 μl media per well) and incubated overnight at 37° C. The test compounds were serially half-log diluted in DMSO, then diluted 100 times in culture media. 100 μL diluted compounds were added into the plates to reach 0.5% final concentration of DMSO in every well. Five days after compound treatment, culture supernatant was collected for further analysis.
For quantitative PCR detection of extracellular HBV DNA, 100 μL culture supernatant was collected and processed in MagNA Pure 96 Nucleic Acid Purification System (Roche Applied Science) for viral DNA extraction. The extracted samples were subjected to HBV DNA quantification by qPCR.
The compounds of the present invention were tested for their capacity to inhibit a HBV activity and activation as described herein.

Data set [2] is described as follows: Metabolic stability study in human microsome. The class given is in vitro ADME. Here is the method: Human Microsomes were preincubated with test compound for 10 min at 37° C. in 100 mM phosphate buffer, pH 7.4. The reactions were initiated by adding NADPH or NADPH regenerating system to give a final incubation volume of 400 μL. For NADPH system, the final incubations contained 1 μM test compound, 0.5 mg/mL liver microsomal protein, 1 mM NADPH in 100 mM phosphate buffer, pH 7.4. For the NADPH regenerating system, the final incubations contained 1 μM test compound, 0.5 mg/mL liver microsomal protein, 3 mM glucose 6-phosphate, 1 mM NADP, 3 mM MgCl2 and 0.05 mg/mL glucose 6-phosphate dehydrogenase in 100 mM phosphate buffer, pH 7.4. After incubation times of 0, 3, 6, 9, 15 and 30 minutes at 37° C., 50 μL samples was removed and transferred to 150 μL methanol solution which was maintained at 4° C. containing 2 μM tolbutamide (internal standard) to terminating the reaction. Following precipitation and centrifugation, the amount of compound remaining in the samples were determined by LC-MS/MS. Controls of no NADPH or NADPH regenerating system at zero and 30 min were also prepared and analyzed.

Data set [3] in a line: Lyophilisation solubility assay (Lysa). The class given is physicochemical. Conditions: pH 6.5, aqueous buffer, thermodynamic from solid. As for the experimental part: The aqueous solubility is an important physico-chemical property that plays a significant role in various physical and biological processes. It is desirable to have good solubility which enables good permeability and gastric and intestinal absorption, linear dose proportionality, less PK variability, and easy formulation for PD/PK studies. […] Lyophilisation solubility assay (Lysa) is a well adopted high throughput assay to measure compound solubility in industry.
Samples are prepared in duplicate from 10 mM DMSO stock solutions. After evaporation of DMSO with a centrifugal vacuum evaporator, the residue is solved in 0.05 M phosphate buffer (pH 6.5), stirred for one hour and shaken for two hours. After one night, the solutions is filtered using a microtiter filter plate and the filtrate and its 1/10 dilution are then analyzed by direct UV measurement or by HPLC-UV. […] The results are in μg/mL.

Setting [4] is: HepG2.2.15 cells, in-house data, read-out: EC50.

Results on 14 molecules are retold here after patent publication US9447086B2, “6-amino acid heteroaryldihydropyrimidines for the treatment and prophylaxis of hepatitis B virus infection” (priority 2012, dated 2016).

Values after ≈ are worked out from the molar mass of the structure shown. Like-named read-outs stand apart in the source and are kept apart here. Some results are limits rather than exact numbers.

Consider `COC(=O)C1=C(CN2CCOC[C@@]2(C)C(=O)O)NC(c2nccs2)=N[C@H]1c1ccc(F)c(F)c1Cl` [Example 78, (S)-4-[(R)-6-(2-Chloro-3,4-difluoro-phenyl)-5-methoxycarbonyl-2-thiazol-2-yl-3,6-dihydro-pyrimidin-4-ylmethyl]-3-methyl-morpholine-3-carboxylic acid], for which the EC50 (as a rule, the concentration giving half of the maximal effect) in data set [1] (setting [4]) came out at 26 nM. For the same molecule, in data set [2], the “Human Hepatic Clearance” value was 3.22 mL/min/kg. Further, in data set [3] (phosphate buffer), the solubility (thermodynamic) (usually the concentration in solution at equilibrium with solid) was more than 653 µg/mL.
The like results for `COC(=O)C1=C(CN2CCOC[C@H]2C(=O)O)NC(c2nc(C)cn2C)=NC1c1ccc(F)cc1Cl` (stereo in doubt) [Example 92, (S)-4-[(S)-6-(2-Chloro-4-fluoro-phenyl)-2-(1,4-dimethyl-1H-imidazol-2-yl)-5-methoxycarbonyl-3,6-dihydro-pyrimidin-4-ylmethyl]-morpholine-3-carboxylic acid] were, in that order, 14 nM, 1.26 mL/min/kg and more than 602 µg/mL.
The like results for `COC(=O)C1=C(CN2CCSCC2C(=O)O)NC(c2nccs2)=N[C@H]1c1ccc(F)cc1Cl` (stereo in doubt) [Example 91, (3S)-4-[[(4R)-4-(2-Chloro-4-fluoro-phenyl)-5-methoxycarbonyl-2-thiazol-2-yl-1,4-dihydropyrimidin-6-yl]methyl]thiomorpholine-3-carboxylic acid] were, in that order, 38 nM, 1.62 mL/min/kg and 584 µg/mL (≈ 1140 µM).
Turning to `COC(=O)C1=C(CN2CC(F)(F)C[C@H]2C(=O)O)NC(c2ncccc2C)=N[C@H]1c1ccc(F)cc1Cl` [Example 24, (R)-6-((S)-2-Carboxy-4,4-difluoro-pyrrolidin-1-ylmethyl)-4-(2-chloro-4-fluoro-phenyl)-2-(3-methyl-pyridin-2-yl)-1,4-dihydro-pyrimidine-5-carboxylic acid methyl ester], in data set [1] (setting [4]), the EC50 was determined as 26 nM. In addition, the “Human Hepatic Clearance” value in data set [2] is on record as 3.19 mL/min/kg. Besides, the solubility (thermodynamic) in data set [3] (phosphate buffer) came to 656 µg/mL (≈ 1250 µM).
For `CCOC(=O)C1=C(CN2CC(F)(F)C[C@H]2C(=O)O)NC(c2nccs2)=N[C@H]1c1ccc(C#N)cc1` [Example 48, (S)-6-((S)-2-Carboxy-4,4-difluoro-pyrrolidin-1-ylmethyl)-4-(4-cyano-phenyl)-2-thiazol-2-yl-1,4-dihydro-pyrimidine-5-carboxylic acid ethyl ester], in that order: 28 nM, 3.12 mL/min/kg and more than 635 µg/mL.
Regarding `COC(=O)C1=C(CN2CC(F)(F)C[C@H]2C(=O)O)NC(c2nccs2)=N[C@H]1c1ccc(Br)cc1Cl` [Example 29, (R)-4-(4-Bromo-2-chloro-phenyl)-6-((S)-2-carboxy-4,4-difluoro-pyrrolidin-1-ylmethyl)-2-thiazol-2-yl-1,4-dihydro-pyrimidine-5-carboxylic acid methyl ester], the concentration giving a half-maximal response (EC50) in data set [1] (setting [4]) came out at 28 nM. In addition, the “Human Hepatic Clearance” value in data set [2] is given as 7.65 mL/min/kg. The thermodynamic solubility in data set [3] (phosphate buffer) was determined as 420 µg/mL (≈ 729 µM).
Consider `COC(=O)C1=C(CN2CC(F)(F)CC[C@@H]2C(=O)O)NC(c2nccs2)=N[C@H]1c1cccc(F)c1Cl` [Example 110, (R)-6-((R)-2-Carboxy-5,5-difluoro-piperidin-1-ylmethyl)-4-(2-chloro-3-fluoro-phenyl)-2-thiazol-2-yl-1,4-dihydro-pyrimidine-5-carboxylic acid methyl ester], for which the concentration for a half-maximal effect (EC50) in data set [1] (setting [4]) stood at 42 nM. Also, the “Human Hepatic Clearance” value in data set [2] is reported as 2.41 mL/min/kg. The thermodynamic solubility in data set [3] (phosphate buffer) is more than 661 µg/mL.
As to `CCOC(=O)C1=C(CN2CCOC[C@H]2C(=O)O)NC(c2nccs2)=N[C@H]1c1ccc(Cl)cc1Cl` [Example 39, (S)-4-[(R)-6-(2,4-Dichloro-phenyl)-5-ethoxycarbonyl-2-thiazol-2-yl-3,6-dihydro-pyrimidin-4-ylmethyl]-morpholine-3-carboxylic acid], the EC50 in data set [1] (HepG2.2.15) stood at 1.1 nM. Further, in data set [2], the “Human Hepatic Clearance” value stood at 7.18 mL/min/kg. Also, in data set [3] (phosphate buffer), the thermodynamic solubility is more than 654 µg/mL.
As to `CCOC(=O)C1=C(CN2CC(F)(F)C[C@H]2C(=O)O)NC(c2nccn2C)=N[C@H]1c1ccc(F)c(F)c1` [Example 56, (S)-6-((S)-2-Carboxy-4,4-difluoro-pyrrolidin-1-ylmethyl)-4-(3,4-difluoro-phenyl)-2-(1-methyl-1H-imidazol-2-yl)-1,4-dihydro-pyrimidine-5-carboxylic acid ethyl ester], in data set [1] (setting [4]), the half-maximal effective concentration (EC50) came to 15 nM. Besides, in data set [2], the “Human Hepatic Clearance” value amounted to 2.44 mL/min/kg. Further, the solubility (thermodynamic) in data set [3] (phosphate buffer) was more than 645 µg/mL.
For the molecule `COC(=O)C1=C(CN2CC(F)(F)C[C@H]2C(=O)O)NC(c2cc(Cl)cs2)=N[C@H]1c1ccc(F)cc1Cl` [Example 23, (R)-6-((S)-2-Carboxy-4,4-difluoro-pyrrolidin-1-ylmethyl)-4-(2-chloro-4-fluoro-phenyl)-2-(4-chloro-thiophen-2-yl)-1,4-dihydro-pyrimidine-5-carboxylic acid methyl ester], in data set [1] (setting [4]), the EC50 stood at 25 nM. The “Human Hepatic Clearance” value in data set [2] turned out to be 8.8 mL/min/kg. For the same molecule, the solubility (thermodynamic) in data set [3] (phosphate buffer) stood at 172 µg/mL (≈ 314 µM).
For the molecule `COC(=O)C1=C(CN2CC(F)(F)C[C@H]2C(=O)O)NC(c2ncc(F)cc2F)=N[C@H]1c1ccc(F)cc1Cl` [Example 4, (R)-6-((S)-2-Carboxy-4,4-difluoro-pyrrolidin-1-ylmethyl)-4-(2-chloro-4-fluoro-phenyl)-2-(3,5-difluoro-pyridin-2-yl)-1,4-dihydro-pyrimidine-5-carboxylic acid methyl ester], the EC50 in data set [1] (setting [4]) is 1.5 nM. Moreover, the “Human Hepatic Clearance” value in data set [2] was determined as 5.11 mL/min/kg. In addition, the solubility (thermodynamic) in data set [3] (phosphate buffer) is more than 700 µg/mL.
Turning to `CCOC(=O)C1=C(CN2CCO[C@H](C)[C@H]2C(=O)O)NC(c2nccs2)=N[C@H]1c1ccc(F)cc1Br` [Example 116, (2R,3S)-4-[(R)-6-(2-Bromo-4-fluoro-phenyl)-5-ethoxycarbonyl-2-thiazol-2-yl-3,6-dihydro-pyrimidin-4-ylmethyl]-2-methyl-morpholine-3-carboxylic acid], in data set [1] (HepG2.2.15), the midpoint of the response, the EC50, lay at 1.8 nM. The “Human Hepatic Clearance” value in data set [2] turned out to be 0 mL/min/kg. Besides, the solubility (thermodynamic) in data set [3] is more than 735 µg/mL.
As for `CCOC(=O)C1=C(CN2CCOC[C@H]2C(=O)O)NC(c2nccs2)=N[C@H]1c1cc(F)cc(Cl)c1` [Example 125, (3S)-4-[[(4S)-4-(3-Chloro-5-fluorophenyl)-5 ethoxycarbonyl-2-(1,3-thiazol-2-yl)-1,4-dihydropyrimidin-6-yl]methyl]morpholine-3 carboxylic acid], in data set [1] (setting [4]), the EC50 stood at 30 nM. Further, the “Human Hepatic Clearance” value in data set [2] is recorded as 1.32 mL/min/kg. The thermodynamic solubility in data set [3] (phosphate buffer) is more than 636 µg/mL.
For `COC(=O)C1=C(CN2C[C@H](C(=O)O)CC(F)(F)C2)NC(c2nc(C)cs2)=N[C@H]1c1ccc(F)cc1Cl` [Example 80, (R)-6-((R)-5-Carboxy-3,3-difluoro-piperidin-1-ylmethyl)-4-(2-chloro-4-fluoro-phenyl)-2-(4-methyl-thiazol-2-yl)-1,4-dihydro-pyrimidine-5-carboxylic acid methyl ester], in that order: 27 nM, 4.27 mL/min/kg and 518 µg/mL (≈ 954 µM).
